Measured values reported in article PMC5025650, “Comparison of research methods for functional characterization of insect olfactory receptors” (Scientific Reports, 2016).

Legend:
[1] = biological target: T1, HassOR13/HassOrco (Helicoverpa assulta, UniProt A0A0B4ZYC6); assay: two-electrode voltage clamp, Xenopus oocytes; format: cell-based; conditions: weak agonist; with HassOrco; holding potential −80 mV; pH 7.6
T1 construct: gene OR13; called heterodimer; with Odorant receptor coreceptor
T1 sequence (A0A0B4ZYC6 1-425): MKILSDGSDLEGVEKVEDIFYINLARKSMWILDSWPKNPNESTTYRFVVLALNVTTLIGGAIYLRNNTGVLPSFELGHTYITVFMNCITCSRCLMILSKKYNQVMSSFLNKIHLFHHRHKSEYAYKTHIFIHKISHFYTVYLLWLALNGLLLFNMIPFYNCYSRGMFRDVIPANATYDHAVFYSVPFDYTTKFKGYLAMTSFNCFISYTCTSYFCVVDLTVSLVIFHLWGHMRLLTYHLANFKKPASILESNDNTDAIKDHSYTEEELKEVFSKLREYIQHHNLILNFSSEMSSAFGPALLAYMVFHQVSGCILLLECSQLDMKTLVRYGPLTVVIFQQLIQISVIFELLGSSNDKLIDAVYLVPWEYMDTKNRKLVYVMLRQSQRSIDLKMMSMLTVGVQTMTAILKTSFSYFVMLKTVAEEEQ
T1 sequence (A7UGE1 1-473 partner): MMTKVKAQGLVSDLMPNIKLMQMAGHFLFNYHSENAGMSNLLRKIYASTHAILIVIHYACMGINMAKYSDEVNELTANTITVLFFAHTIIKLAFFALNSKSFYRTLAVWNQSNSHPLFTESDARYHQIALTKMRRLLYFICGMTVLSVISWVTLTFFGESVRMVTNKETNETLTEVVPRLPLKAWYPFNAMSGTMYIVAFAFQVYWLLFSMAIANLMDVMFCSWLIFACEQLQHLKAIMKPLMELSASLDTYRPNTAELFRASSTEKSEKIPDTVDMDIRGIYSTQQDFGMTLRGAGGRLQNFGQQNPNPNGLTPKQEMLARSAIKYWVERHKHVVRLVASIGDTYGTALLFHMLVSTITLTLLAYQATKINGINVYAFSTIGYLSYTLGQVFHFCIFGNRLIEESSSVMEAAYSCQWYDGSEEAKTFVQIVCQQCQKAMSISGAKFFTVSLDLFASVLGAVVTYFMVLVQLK

[2] = biological target: T1, HassOR13/HassOrco; assay: two-electrode voltage clamp, Xenopus oocytes; format: cell-based

CCCC/C=C\CCCCCCCC=O [Z9-14:Ald, (Z)-9-tetradecenal]
current at 10^-4 M [1]: 31 ± 8 nA

CCCCCC/C=C\CCCCCCCC=O [Z9-16:Ald, (Z)-9-hexadecenal]
current at 10^-4 M [1]: 72 ± 13 nA

CCCC/C=C\CCCCCCCCCC=O [Z11-16:Ald, (Z)-11-hexadecenal]
EC50 [2]: 68.4 µM
